The values that follow come from ChEMBL document CHEMBL3856191, “Structural modifications at the 6-position of thieno[2,3-d]pyrimidines and their effects on potency at FLT3 for treatment of acute myeloid leukemia” (Eur J Med Chem, 2016).

The target of series [1] is Ribosomal protein S6 kinase alpha-5 (Homo sapiens) (UniProt O75582). Put plainly: Inhibition of recombinant human MSK1 expressed in insect Sf21 cells assessed as remaining activity at 10 uM preincubated for 15 mins followed by Crosstide KK substrate addition for 30 mins in presence of [gamma-32P]ATP by […] assay.
Chain of Ribosomal protein S6 kinase alpha-5 (Homo sapiens) (O75582 whole entry, looked up): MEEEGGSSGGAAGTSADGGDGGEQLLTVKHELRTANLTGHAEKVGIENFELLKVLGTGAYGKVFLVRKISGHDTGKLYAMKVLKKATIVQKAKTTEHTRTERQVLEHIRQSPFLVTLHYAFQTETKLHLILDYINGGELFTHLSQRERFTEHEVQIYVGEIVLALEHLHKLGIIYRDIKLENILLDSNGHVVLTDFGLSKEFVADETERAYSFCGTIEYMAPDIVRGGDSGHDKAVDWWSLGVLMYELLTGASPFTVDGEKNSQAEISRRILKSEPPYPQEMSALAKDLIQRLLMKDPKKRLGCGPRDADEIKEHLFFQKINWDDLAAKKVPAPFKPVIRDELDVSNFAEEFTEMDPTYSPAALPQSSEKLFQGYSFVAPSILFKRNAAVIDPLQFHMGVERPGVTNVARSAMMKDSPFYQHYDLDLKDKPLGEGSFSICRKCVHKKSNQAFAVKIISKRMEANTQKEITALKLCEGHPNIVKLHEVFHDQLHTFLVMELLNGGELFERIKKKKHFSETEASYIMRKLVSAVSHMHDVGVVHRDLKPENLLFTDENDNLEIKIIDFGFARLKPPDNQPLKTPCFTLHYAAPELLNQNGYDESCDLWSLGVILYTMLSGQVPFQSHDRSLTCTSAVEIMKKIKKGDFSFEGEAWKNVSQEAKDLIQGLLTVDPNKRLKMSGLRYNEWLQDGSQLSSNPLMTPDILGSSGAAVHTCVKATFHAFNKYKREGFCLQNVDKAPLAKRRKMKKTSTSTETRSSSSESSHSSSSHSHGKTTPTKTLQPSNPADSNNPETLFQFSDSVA
The nature of series [2]: Elimination half life in Sprague-Dawley rat at 5 mg/kg, iv by LC/MS/MS analysis. To be noted: in vivo, read-out: beta t1/2 (converted). It is filed as ADME, organism-based.
Series [3] addresses Rho-associated protein kinase 2 (Homo sapiens) (UniProt O75116). Description: Inhibition of human recombinant ROCK-2 expressed in sf21 cells assessed as remaining activity at 10 uM preincubated for 15 mins followed by Long S6 kinase substrate addition measured after 30 mins in presence of [gamma-32P]ATP by […] assay. Background: TR-FRET usually uses a lanthanide donor and a delayed reading to cut background.

Series [4] is described as follows: AUC (0 to infinity) in Sprague-Dawley rat at 30 mg/kg, up to 24 hrs by LC/MS/MS analysis. In kind it is ADME, organism-based. Also on record: dose 30 mg/kg, time infinity. Conditions: in vivo.
A short description of series [5]: Metabolic stability in human liver microsomes assessed as compound remaining at 1 uM after 30 mins in presence of NADPH by HPLC-MS analysis. It is filed as ADME. To be noted: read-out: Stability.
In series [6] the target is Mitogen-activated protein kinase 12 (Homo sapiens) (UniProt P53778). Description: Inhibition of human SAPK3 assessed as remaining activity at 10 uM in presence of [gamma-32P]ATP by […] assay.
Chain of Mitogen-activated protein kinase 12 (Homo sapiens) (P53778 whole entry): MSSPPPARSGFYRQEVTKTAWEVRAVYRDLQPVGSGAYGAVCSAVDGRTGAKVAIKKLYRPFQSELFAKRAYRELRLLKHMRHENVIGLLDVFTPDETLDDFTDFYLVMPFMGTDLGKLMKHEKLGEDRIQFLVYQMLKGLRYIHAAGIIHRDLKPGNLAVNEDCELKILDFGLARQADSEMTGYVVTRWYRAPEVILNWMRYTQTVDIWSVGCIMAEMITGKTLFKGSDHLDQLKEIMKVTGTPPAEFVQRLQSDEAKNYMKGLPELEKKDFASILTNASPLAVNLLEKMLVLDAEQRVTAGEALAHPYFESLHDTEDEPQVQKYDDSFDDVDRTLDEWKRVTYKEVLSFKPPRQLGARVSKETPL
Another series can be described thus: cells. Conditions: Homo sapiens, HL-60, 48 h.
The target in series [7] is Tyrosine-protein kinase receptor UFO (Homo sapiens) (UniProt P30530). Put plainly: Inhibition of recombinant human AXL expressed in insect Sf21 cells assessed as remaining activity at 10 uM preincubated for 15 mins followed by poly(Glu:Tyr) substrate addition for 30 mins in presence of [gamma-32P]ATP by […] assay.
For series [8], the target named is Aurora kinase A (Homo sapiens) (UniProt O14965). Description: Inhibition of recombinant human AURORA A expressed in insect Sf21 cells assessed as remaining activity at 10 uM preincubated for 15 mins followed by Kemptide substrate addition for 30 mins in presence of [gamma-32P]ATP by […] assay.
Chain of Aurora kinase A (Homo sapiens) (O14965 whole entry): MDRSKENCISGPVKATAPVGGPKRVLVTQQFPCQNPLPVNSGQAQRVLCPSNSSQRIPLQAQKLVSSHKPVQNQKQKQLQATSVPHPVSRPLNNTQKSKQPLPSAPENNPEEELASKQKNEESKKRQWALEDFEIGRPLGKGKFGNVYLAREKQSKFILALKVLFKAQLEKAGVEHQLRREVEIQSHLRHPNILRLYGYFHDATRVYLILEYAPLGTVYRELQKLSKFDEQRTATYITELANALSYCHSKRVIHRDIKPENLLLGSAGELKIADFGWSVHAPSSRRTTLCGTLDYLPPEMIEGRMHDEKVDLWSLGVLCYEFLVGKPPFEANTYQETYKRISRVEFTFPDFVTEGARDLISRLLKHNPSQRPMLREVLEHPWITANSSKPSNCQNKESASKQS
Series [9] addresses Inhibitor of nuclear factor kappa-B kinase subunit alpha (Homo sapiens) (UniProt O15111). Put plainly: Inhibition of recombinant human IKK-alpha expressed in insect Sf21 cells assessed as remaining activity at 10 uM preincubated for 15 mins followed by IKKtide substrate addition for 30 mins in presence of [gamma-32P]ATP by […] assay.
In series [10] the target is Receptor tyrosine-protein kinase erbB-2 (Homo sapiens) (UniProt P04626). Put plainly: Inhibition of recombinant human ERBB2 expressed in insect cells assessed as remaining activity at 10 uM preincubated for 15 mins followed by poly(Glu:Tyr) substrate addition for 30 mins in presence of [gamma-32P]ATP by […] assay.
Chain of Receptor tyrosine-protein kinase erbB-2 (Homo sapiens) (P04626 whole entry): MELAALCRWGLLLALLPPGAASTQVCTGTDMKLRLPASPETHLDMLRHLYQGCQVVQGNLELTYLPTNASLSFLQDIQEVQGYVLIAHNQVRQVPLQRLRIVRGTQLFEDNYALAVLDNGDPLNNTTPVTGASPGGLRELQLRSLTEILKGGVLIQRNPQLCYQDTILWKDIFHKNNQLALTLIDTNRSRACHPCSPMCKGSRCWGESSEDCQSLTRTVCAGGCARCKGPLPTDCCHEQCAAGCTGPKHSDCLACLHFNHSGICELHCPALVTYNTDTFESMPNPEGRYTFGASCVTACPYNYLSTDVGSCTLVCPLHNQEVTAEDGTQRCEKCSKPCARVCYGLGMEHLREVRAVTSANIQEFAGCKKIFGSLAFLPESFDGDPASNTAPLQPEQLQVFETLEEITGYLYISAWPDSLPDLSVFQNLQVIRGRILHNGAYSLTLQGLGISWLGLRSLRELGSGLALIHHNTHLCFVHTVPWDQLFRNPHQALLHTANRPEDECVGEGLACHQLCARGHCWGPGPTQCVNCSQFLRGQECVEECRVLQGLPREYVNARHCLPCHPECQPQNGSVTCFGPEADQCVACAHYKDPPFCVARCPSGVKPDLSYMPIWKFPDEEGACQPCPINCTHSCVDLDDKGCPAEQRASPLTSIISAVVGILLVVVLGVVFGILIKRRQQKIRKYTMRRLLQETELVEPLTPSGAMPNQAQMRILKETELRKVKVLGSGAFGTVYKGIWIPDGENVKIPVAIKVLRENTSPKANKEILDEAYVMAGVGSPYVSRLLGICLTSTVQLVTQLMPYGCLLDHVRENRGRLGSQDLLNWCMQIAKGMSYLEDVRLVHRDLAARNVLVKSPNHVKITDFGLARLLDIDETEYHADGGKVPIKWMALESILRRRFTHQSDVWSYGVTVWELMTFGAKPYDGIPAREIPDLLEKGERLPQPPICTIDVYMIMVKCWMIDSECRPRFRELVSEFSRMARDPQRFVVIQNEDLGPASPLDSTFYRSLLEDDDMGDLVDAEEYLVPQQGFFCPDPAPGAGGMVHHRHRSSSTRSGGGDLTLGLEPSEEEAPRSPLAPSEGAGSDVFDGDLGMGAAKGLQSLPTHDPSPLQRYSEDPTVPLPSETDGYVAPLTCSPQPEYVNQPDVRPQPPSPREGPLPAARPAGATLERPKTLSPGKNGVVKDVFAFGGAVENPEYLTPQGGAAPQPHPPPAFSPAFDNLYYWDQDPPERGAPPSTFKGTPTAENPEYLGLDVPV
For series [11], the target named is Fibroblast growth factor receptor 3 (Homo sapiens) (UniProt P22607). Description: Inhibition of recombinant human FGFR3 expressed in insect Sf21 cells assessed as remaining activity at 10 uM preincubated for 15 mins followed by poly(Glu:Tyr) substrate addition for 30 mins in presence of [gamma-32P]ATP by […] assay.
Chain of Fibroblast growth factor receptor 3 (Homo sapiens) (P22607 23-806 limits assumed): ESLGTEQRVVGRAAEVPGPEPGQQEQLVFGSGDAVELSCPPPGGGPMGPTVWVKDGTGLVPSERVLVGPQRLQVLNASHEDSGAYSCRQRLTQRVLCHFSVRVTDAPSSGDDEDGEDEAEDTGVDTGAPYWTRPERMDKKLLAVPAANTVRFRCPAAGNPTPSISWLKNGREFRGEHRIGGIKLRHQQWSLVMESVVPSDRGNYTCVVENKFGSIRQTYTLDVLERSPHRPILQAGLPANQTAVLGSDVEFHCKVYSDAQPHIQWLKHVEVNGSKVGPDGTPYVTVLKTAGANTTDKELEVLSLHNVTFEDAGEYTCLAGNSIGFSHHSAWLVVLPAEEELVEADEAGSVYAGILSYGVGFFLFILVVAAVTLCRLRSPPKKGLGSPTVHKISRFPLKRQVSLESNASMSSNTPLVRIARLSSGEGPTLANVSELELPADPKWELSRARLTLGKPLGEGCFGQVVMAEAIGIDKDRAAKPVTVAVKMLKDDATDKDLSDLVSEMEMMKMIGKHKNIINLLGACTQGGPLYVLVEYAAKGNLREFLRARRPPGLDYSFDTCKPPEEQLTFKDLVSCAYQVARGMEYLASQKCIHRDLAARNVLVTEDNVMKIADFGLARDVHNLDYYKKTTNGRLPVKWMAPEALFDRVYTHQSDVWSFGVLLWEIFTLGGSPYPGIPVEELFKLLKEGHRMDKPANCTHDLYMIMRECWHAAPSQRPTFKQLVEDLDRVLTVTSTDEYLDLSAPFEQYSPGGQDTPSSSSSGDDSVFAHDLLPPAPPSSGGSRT
Series [12] in a line: Volume of distribution at steady state in Sprague-Dawley rat at 5 mg/kg, iv up to 24 hrs by LC/MS/MS analysis. In kind it is ADME, organism-based. Conditions: in vivo, read-out: Vdss.
Series [13] in a line: Solubility of the compound in PBS at pH 7.4 after 1 hr by HPLC-MS analysis. In kind it is physicochemical.
Series [14] is described as follows: Metabolic stability in rat liver microsomes assessed as compound remaining at 1 uM after 30 mins in presence of NADPH by HPLC-MS analysis. It is filed as ADME. Conditions: liver microsomes, read-out: Stability. (Microsomes from liver hold many membrane-bound enzymes, among them those of drug oxidation.)
In series [15] the target is Tyrosine-protein kinase Blk (Homo sapiens) (UniProt P51451). Put plainly: Inhibition of BLK (unknown origin) assessed as remaining activity at 10 uM preincubated for 15 mins followed by substrate addition for 30 mins in presence of [gamma-32P]ATP by […] assay.
Series [16] addresses Serine/threonine-protein kinase pim-1 (Homo sapiens) (UniProt P11309). Description: Inhibition of recombinant human PIM1 expressed in Escherichia coli assessed as remaining activity at 10 uM preincubated for 15 mins followed by S6 kinase/Rsk2 substrate peptide 2 addition for 30 mins in presence of [gamma-32P]ATP by […] assay.
Series [17] has as its target Fibroblast growth factor receptor 1 (Homo sapiens) (UniProt P11362). Put plainly: Inhibition of recombinant human FGFR1 expressed in insect Sf21 cells assessed as remaining activity at 10 uM preincubated for 15 mins followed by poly(Glu:Tyr) substrate addition for 30 mins in presence of [gamma-32P]ATP by […] assay.
Series [18] has as its target T1, Receptor-type tyrosine-protein kinase FLT3 (Homo sapiens, UniProt P36888).
T1 sequence (P36888 whole entry): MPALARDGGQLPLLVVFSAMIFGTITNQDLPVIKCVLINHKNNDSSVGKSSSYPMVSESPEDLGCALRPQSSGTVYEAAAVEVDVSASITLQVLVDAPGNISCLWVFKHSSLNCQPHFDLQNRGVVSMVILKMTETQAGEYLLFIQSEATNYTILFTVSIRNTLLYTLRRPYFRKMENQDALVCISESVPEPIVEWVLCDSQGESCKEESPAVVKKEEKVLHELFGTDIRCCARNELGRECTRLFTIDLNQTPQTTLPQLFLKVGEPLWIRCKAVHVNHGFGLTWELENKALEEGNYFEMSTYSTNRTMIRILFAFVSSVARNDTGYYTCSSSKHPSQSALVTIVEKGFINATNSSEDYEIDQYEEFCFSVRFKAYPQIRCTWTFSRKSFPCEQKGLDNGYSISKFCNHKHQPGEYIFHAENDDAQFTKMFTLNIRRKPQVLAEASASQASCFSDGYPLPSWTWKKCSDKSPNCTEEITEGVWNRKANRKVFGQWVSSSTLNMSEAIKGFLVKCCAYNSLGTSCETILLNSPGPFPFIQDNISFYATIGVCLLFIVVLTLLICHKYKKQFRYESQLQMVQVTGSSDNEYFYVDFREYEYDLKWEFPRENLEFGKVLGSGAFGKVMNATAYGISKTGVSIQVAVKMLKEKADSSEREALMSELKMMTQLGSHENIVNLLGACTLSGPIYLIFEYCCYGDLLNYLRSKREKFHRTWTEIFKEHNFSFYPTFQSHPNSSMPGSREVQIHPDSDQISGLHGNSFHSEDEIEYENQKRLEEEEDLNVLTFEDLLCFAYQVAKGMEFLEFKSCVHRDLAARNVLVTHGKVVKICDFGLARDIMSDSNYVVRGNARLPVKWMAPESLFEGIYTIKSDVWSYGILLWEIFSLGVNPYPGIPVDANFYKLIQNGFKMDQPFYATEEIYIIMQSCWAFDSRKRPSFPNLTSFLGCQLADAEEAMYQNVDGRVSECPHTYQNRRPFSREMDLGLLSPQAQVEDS
Description: biochemical. In kind it is cell-based, Sf21.
Description: Inhibition of recombinant human FLT3 expressed in insect Sf21 cells preincubated for 15 mins followed by poly(Glu:Tyr) substrate addition for 30 mins in presence of [gamma-32P]ATP by TR-FRET assay

By AUC(0-inf) is commonly meant the area under the concentration-time curve extrapolated to infinity. Low values mean low exposure, high ones high exposure. A word on the GI50: it is the concentration at which growth is held to half of that of the control. As usually defined, the solubility is the dissolved amount per volume that the medium holds. A lower solubility goes with a poorly soluble substance. In general, IC50 refers to the concentration needed to halve the response being measured. A higher IC50 goes with weaker potency.

Chain of Serine/threonine-protein kinase pim-1 (Homo sapiens) (P11309 whole entry, looked up): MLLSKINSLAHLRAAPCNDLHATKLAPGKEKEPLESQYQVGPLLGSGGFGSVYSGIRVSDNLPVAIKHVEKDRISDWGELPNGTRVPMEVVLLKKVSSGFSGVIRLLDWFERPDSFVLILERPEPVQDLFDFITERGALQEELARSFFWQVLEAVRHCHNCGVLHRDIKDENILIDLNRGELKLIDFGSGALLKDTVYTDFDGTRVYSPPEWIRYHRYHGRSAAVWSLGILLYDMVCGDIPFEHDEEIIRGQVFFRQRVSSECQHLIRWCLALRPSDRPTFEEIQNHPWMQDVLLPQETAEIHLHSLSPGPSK
Chain of Inhibitor of nuclear factor kappa-B kinase subunit alpha (Homo sapiens) (O15111 whole entry): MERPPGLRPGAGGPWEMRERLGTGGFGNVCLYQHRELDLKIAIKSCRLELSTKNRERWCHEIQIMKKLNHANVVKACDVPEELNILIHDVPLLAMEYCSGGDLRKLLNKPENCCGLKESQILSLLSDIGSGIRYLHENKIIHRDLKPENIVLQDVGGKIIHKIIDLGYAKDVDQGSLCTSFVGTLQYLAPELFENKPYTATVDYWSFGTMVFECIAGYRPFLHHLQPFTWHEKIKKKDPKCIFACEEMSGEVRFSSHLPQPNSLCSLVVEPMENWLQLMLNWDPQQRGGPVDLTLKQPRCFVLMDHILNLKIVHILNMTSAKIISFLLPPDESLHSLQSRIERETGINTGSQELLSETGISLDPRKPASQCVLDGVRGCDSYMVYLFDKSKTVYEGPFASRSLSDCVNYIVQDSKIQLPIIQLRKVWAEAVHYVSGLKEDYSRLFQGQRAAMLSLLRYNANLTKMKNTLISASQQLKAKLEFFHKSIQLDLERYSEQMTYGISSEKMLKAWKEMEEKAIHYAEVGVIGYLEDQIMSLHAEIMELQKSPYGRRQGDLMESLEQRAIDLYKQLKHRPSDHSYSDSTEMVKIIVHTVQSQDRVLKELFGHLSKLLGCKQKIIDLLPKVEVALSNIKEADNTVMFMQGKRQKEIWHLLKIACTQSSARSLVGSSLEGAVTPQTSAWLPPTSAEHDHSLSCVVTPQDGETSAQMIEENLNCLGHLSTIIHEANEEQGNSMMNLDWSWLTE
Description for cells: Growth inhibition of human HL60 cells expressing wild type FLT-3 after 48 hrs by XTT assay

On to `CNCCOc1ccc(-c2sc3nc(-c4cccs4)nc(NN4C(=O)C=C(C)C4=O)c3c2C)cc1.Cl`, for which the Activity is 110% in series [1]; 93% in series [3]; 99% in [6]; 44% in series [7]; 67% in series [8]; 101% in series [9]. The Activity was found to be 89% in series [10]; 72% in series [11]; 35% in [15]; 46% in series [16]; 53% in [17]. The half-life in series [2] was 7.61 h. Also, the area under the curve AUC(0-inf) in series [4] came out at 2170 ng·h/mL. For the same compound, the remaining at 0.5 h, 1 µM in series [5] came out at 79.8%; in series [14], 67.1%. Besides, halving of growth in the series “cells” (GI50) required 250 nM. The Vd in series [12] came to 8.22 L/kg. The solubility at 1 h in series [13] worked out at 2.96 µM. The IC50 in series [18] worked out at 8.03 nM.
